Measurements reported in the kinase profiling compilation of Christmann-Franck et al. (2016).

Columns and labels:
Test in all cases: radiometric filter-binding kinase assay
[1] = target: AURKB (human) (UniProt Q96GD4); conditions: compound 100.0 µM; ATP 20 µM
[2] = target: CAMKK2 (human) (UniProt Q96RR4); conditions: compound 100.0 µM; ATP 20 µM
[3] = target: CHEK1 (human) (UniProt O14757); conditions: compound 100.0 µM; ATP 20 µM
[4] = target: CHEK2 (human) (UniProt O96017); conditions: compound 100.0 µM; ATP 20 µM
[5] = target: CLK2 (human) (UniProt P49760); conditions: compound 100.0 µM; ATP 5 µM
[6] = target: CSK (human) (UniProt P41240); conditions: compound 100.0 µM; ATP 20 µM
[7] = target: DYRK2 (human) (UniProt Q92630); conditions: compound 100.0 µM; ATP 50 µM
[8] = target: EPHB3 (human) (UniProt P54753); conditions: compound 100.0 µM; ATP 20 µM
[9] = target: GCK (human) (UniProt Q12851); conditions: compound 100.0 µM; ATP 20 µM
[10] = target: GSK3B (human) (UniProt P49841); conditions: compound 100.0 µM; ATP 5 µM
[11] = target: HIPK1 (human) (UniProt Q86Z02); conditions: compound 100.0 µM; ATP 20 µM
[12] = target: IGF1R (human) (UniProt P08069); conditions: compound 100.0 µM; ATP 5 µM
[13] = target: IKBKB (human) (UniProt O14920); conditions: compound 100.0 µM; ATP 5 µM
[14] = target: IRAK4 (human) (UniProt Q9NWZ3); conditions: compound 100.0 µM; ATP 20 µM
[15] = target: JAK2 JH1 JH2 (human) (UniProt O60674); conditions: compound 100.0 µM; ATP 5 µM
[16] = target: MAP2K1 (human) (UniProt Q02750); conditions: compound 100.0 µM; ATP 5 µM
[17] = target: MAP2K2 (human) (UniProt P36507); conditions: compound 100.0 µM; ATP 5 µM
[18] = target: MAP3K7 TAB1 (human) (UniProt Q15750+O43318); conditions: compound 100.0 µM; ATP 5 µM
[19] = target: MAPK11 (human) (UniProt Q15759); conditions: compound 100.0 µM; ATP 20 µM
[20] = target: MAPK12 (human) (UniProt P53778); conditions: compound 100.0 µM; ATP 5 µM
[21] = target: MAPK14 (human) (UniProt Q16539); conditions: compound 100.0 µM; ATP 50 µM
[22] = target: MAPKAPK5 (human) (UniProt Q8IW41); conditions: compound 100.0 µM; ATP 20 µM
[23] = target: MARK4 (human) (UniProt Q96L34); conditions: compound 100.0 µM; ATP 50 µM
[24] = target: MKNK1 (human) (UniProt Q9BUB5); conditions: compound 100.0 µM; ATP 50 µM
[25] = system: PAK2 (human), Q13177 [T402E]; conditions: compound 100.0 µM; ATP 20 µM
[26] = target: PAK4 (human) (UniProt O96013); conditions: compound 100.0 µM; ATP 5 µM
[27] = target: PAK7 (human) (UniProt Q9P286); conditions: compound 100.0 µM; ATP 20 µM
[28] = target: PDPK1 (human) (UniProt O15530); conditions: compound 100.0 µM
[29] = target: PLK1 (human) (UniProt P53350); conditions: compound 100.0 µM; ATP 5 µM
[30] = target: PRKAA1 PRKAB2 PRKAG1 (human) (UniProt O43741+Q13131+P54619); conditions: compound 100.0 µM; ATP 20 µM
[31] = target: PRKCG (human) (UniProt P05129); conditions: compound 100.0 µM; ATP 20 µM
[32] = target: RIPK2 (human) (UniProt O43353); conditions: compound 100.0 µM; ATP 20 µM
[33] = system: SGK1 (human), O00141 [S422D]; conditions: compound 100.0 µM; ATP 20 µM
[34] = target: SRC (human) (UniProt P12931); conditions: compound 100.0 µM; ATP 50 µM
[35] = target: SRPK1 (human) (UniProt Q96SB4); conditions: compound 100.0 µM; ATP 50 µM
[36] = target: STK11 CAB39 STRADA (human) (UniProt Q9Y376+Q7RTN6+Q15831); conditions: compound 100.0 µM; ATP 20 µM
[37] = target: STK3 (human) (UniProt Q13188); conditions: compound 100.0 µM; ATP 20 µM
[38] = target: TTK (human) (UniProt P33981); conditions: compound 100.0 µM; ATP 20 µM
[39] = target: YES1 (human) (UniProt P07947); conditions: compound 100.0 µM; ATP 20 µM

Chain of PDPK1 (human) (O15530 whole entry, looked up): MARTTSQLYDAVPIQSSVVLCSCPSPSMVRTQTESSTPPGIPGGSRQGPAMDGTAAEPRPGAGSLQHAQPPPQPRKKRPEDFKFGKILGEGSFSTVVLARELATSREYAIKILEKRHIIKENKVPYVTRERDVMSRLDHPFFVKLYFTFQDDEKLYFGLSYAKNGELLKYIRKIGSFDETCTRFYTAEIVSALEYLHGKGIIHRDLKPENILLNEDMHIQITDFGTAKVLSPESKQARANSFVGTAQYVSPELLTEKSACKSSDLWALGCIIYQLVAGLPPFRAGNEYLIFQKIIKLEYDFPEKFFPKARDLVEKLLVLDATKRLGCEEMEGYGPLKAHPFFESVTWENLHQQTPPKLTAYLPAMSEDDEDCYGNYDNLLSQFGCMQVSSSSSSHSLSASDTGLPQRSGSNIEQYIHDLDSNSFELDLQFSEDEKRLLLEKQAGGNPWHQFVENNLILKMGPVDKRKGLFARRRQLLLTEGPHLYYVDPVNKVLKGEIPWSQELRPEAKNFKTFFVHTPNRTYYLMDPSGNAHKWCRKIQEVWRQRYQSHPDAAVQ
Chain of MKNK1 (human) (Q9BUB5 whole entry, looked up): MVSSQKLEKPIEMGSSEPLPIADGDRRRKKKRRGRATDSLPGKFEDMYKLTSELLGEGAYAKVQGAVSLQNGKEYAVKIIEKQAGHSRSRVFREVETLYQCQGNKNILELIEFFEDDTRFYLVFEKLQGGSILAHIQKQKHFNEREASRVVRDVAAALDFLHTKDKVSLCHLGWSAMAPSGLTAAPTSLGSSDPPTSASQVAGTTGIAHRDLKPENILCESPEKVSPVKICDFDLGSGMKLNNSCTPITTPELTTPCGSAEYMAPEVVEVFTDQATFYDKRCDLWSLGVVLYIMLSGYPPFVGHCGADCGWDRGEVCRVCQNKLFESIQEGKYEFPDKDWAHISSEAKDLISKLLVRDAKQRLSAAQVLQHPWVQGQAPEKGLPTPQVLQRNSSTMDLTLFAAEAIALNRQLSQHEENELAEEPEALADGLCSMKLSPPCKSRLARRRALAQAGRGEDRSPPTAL
Chain of MAPK14 (human) (Q16539 whole entry, looked up): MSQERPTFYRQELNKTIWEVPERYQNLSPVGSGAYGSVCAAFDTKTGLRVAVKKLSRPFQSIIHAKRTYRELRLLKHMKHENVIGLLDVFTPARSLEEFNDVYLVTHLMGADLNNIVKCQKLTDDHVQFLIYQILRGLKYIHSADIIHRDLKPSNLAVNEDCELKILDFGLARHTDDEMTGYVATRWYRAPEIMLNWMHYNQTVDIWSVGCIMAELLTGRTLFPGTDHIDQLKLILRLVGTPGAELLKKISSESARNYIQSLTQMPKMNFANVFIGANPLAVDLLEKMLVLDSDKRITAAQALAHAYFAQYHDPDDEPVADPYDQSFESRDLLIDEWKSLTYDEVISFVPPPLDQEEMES
Chain of CHEK1 (human) (O14757 whole entry, looked up): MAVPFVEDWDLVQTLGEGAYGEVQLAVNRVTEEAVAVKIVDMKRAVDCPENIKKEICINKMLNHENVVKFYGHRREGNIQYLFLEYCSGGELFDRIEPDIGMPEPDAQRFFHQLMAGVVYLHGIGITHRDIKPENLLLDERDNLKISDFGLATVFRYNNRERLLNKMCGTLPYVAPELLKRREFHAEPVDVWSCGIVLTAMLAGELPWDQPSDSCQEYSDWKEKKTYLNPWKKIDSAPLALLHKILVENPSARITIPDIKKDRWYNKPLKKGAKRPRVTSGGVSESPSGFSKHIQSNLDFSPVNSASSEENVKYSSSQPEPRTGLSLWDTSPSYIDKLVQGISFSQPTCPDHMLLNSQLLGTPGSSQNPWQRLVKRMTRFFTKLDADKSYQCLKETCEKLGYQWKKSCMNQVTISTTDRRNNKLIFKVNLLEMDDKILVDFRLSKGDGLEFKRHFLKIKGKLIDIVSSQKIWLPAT
Chain of IGF1R (human) (P08069 whole entry, looked up): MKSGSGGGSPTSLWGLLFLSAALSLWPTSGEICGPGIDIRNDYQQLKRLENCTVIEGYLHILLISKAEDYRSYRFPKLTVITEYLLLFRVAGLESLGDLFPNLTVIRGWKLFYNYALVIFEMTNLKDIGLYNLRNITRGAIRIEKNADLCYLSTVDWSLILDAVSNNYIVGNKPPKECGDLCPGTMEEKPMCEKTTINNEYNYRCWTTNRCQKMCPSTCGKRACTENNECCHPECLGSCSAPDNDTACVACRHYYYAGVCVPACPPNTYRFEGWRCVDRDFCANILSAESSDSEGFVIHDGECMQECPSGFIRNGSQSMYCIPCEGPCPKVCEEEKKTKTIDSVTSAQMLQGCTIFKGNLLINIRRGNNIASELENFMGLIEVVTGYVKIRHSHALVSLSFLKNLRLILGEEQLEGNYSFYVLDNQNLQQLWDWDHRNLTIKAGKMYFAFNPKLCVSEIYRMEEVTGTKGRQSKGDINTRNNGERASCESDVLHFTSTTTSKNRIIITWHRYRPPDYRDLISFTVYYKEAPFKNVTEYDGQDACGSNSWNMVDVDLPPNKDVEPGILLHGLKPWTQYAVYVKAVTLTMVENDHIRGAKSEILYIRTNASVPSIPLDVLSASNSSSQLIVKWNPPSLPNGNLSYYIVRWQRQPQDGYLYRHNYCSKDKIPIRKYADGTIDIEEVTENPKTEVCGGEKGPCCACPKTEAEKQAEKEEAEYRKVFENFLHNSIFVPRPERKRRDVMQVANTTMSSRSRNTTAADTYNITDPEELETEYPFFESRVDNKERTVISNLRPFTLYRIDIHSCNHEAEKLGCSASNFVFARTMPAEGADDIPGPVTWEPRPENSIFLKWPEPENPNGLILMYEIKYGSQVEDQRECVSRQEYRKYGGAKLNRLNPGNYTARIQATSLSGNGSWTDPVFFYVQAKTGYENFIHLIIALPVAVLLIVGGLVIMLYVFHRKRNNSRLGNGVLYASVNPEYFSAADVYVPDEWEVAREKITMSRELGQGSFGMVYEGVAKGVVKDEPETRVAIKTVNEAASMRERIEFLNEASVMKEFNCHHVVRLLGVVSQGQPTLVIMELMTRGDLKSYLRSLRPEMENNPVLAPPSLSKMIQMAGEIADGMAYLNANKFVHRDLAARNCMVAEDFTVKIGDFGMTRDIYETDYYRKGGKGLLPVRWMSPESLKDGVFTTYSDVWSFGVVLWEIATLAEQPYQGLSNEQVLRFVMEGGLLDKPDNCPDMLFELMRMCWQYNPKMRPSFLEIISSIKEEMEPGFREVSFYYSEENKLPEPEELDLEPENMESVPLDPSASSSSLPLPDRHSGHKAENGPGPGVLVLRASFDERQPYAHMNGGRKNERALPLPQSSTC
Chain of GCK (human) (Q12851 whole entry, looked up): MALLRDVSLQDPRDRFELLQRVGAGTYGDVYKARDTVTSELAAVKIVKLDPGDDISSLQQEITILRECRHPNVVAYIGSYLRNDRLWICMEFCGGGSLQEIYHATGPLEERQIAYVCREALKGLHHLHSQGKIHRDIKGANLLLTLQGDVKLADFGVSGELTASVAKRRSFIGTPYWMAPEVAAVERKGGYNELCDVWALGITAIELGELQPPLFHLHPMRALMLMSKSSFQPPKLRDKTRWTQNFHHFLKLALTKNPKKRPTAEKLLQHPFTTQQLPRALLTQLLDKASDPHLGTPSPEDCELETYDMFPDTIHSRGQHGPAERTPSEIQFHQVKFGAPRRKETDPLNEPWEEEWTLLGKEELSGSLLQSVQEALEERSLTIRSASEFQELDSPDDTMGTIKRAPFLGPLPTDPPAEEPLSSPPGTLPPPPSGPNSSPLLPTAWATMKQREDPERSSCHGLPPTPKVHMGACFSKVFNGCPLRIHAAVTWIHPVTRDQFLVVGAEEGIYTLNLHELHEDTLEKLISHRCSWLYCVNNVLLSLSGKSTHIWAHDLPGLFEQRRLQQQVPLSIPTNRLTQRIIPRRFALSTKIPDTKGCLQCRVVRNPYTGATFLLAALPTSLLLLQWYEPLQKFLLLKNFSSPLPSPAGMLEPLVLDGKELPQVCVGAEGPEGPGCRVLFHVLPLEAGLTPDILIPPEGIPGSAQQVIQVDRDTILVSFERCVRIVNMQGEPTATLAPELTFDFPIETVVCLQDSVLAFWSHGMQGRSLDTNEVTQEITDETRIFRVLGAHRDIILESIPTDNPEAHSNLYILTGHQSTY
Chain of IKBKB (human) (O14920 whole entry, looked up): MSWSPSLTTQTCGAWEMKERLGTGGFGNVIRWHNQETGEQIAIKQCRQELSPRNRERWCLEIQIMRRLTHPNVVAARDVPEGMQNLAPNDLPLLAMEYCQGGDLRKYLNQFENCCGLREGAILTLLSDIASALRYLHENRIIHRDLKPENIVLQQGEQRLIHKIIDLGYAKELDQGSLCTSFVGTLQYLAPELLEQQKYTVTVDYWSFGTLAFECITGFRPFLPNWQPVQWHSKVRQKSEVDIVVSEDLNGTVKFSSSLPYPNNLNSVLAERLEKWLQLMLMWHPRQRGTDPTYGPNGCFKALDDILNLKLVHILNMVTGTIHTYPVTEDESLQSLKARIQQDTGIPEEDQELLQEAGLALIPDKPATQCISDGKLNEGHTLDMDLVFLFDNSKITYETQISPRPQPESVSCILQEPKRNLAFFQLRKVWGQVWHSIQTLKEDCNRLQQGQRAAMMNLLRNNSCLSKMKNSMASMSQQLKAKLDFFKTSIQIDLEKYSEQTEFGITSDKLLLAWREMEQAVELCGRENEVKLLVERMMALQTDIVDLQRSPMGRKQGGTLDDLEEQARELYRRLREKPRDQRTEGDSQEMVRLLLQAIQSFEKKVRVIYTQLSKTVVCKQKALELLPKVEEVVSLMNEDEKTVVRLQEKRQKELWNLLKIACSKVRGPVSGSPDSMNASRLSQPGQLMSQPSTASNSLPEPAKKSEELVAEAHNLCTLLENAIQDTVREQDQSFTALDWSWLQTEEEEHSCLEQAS

SMILES	inhibition [1]	inhibition [2]	inhibition [3]	inhibition [4]	inhibition [5]	inhibition [6]	inhibition [7]	inhibition [8]	inhibition [9]	inhibition [10]	inhibition [11]	inhibition [12]	inhibition [13]	inhibition [14]	inhibition [15]	inhibition [16]	inhibition [17]	inhibition [18]	inhibition [19]	inhibition [20]	other results
CC(=O)Nc1nc2cnc(-c3c(C)cccc3C)cn2n1	0%	18%	0%	0%	28%	0%	0%	4%	0%	8%	0%	0%	0%	0%	9%	0%	0%	0%	0%	0%	inhibition [21]: 0%; inhibition [22]: 17%; inhibition [23]: 17%; inhibition [24]: 0%; inhibition [25]: 0%; inhibition [26]: 0%; inhibition [27]: 5%; inhibition ([28]; ATP 20 µM): 0%; inhibition ([28]; ATP 50 µM): 0%; inhibition [29]: 0%; inhibition [30]: 0%; inhibition [31]: 12%; inhibition [32]: 5%; inhibition [33]: 0%; inhibition [34]: 0%; inhibition [35]: 10%; inhibition [36]: 0%; inhibition [37]: 0%; inhibition [38]: 0%; inhibition [39]: 17%
O=C(c1cccc(-c2cc3c(=O)[nH]cnc3s2)c1)N1CCOCC1	6%	0%	0%	34%	46%	10%	53%	6%	7%	70%	10%	0%	37%	28%	75%	31%	8%	78%	15%	0%	inhibition [21]: 0%; inhibition [22]: 0%; inhibition [23]: 0%; inhibition [24]: 0%; inhibition [25]: 0%; inhibition [26]: 34%; inhibition [27]: 0%; inhibition ([28]; ATP 20 µM): 16%; inhibition ([28]; ATP 50 µM): 53%; inhibition [29]: 0%; inhibition [30]: 50%; inhibition [31]: 16%; inhibition [32]: 12%; inhibition [33]: 14%; inhibition [34]: 33%; inhibition [35]: 19%; inhibition [36]: 0%; inhibition [37]: 27%; inhibition [38]: 0%; inhibition [39]: 0%
